Read-outs that look alike come from different tables or passages of the source.
Experiments:
[1] = tested on: cardiac sympathetic afferent input; conditions: anesthetized CHF dogs; acute epicardial application; cited from earlier work
[2] = tested on: cardiac sympathetic afferent input; conditions: anesthetized CHF rats; acute epicardial application; cited from earlier work
[3] = tested on: infarcted heart / CSAR activation; test: Cardiac plasma extravasation (Evans Blue area); assay type: in vivo, rat; conditions: i.v.
Source text: This example illustrates local anti-inflammatory effects of RTX in the infarcted heart. Myocardial ischemia causes the production and release of several metabolites including bradykinin, prostaglandins and protons that stimulate cardiac sympathetic afferent nerve endings leading to increases in BP, HR and sympathetic nerve activity. As cardiac TRPV1-expressing sympathetic afferents also subserve a “dual sensory-efferent” function and release pro-inflammatory neuropeptides, we hypothesized that plasma extravasation and cardiac neuroinflammation follows myocardial ischemia. […] Inflammation in the infarct area may be due to tissue death whereas in peri-infarct and remote areas may be due to cardiac sympathetic afferent mediated neuroinflammation. This may explain why RTX prevented cardiac inflammation in non-infarct areas to a greater extent than in the infarct area.

Row | Compound | baseline MAP, HR and RSNA [1] | baseline MAP, HR and RSNA [2] | cardiac plasma extravasation after MI (Evans Blue area) ([3]; Spantide II 0.3 mg/kg, 2 min prior to injection of Evans Blue) | plasma extravasation following CSAR activation by epicardial capsaicin or bradykinin ([3]; acute pretreatment with Spantide II, 0.3 mg/kg)
1 | CCN(CC)CC(=O)Nc1c(C)cccc1C [lidocaine] | decreased | decreased |  | 
2 | Spantide II |  |  | attenuated | largely be abolished

Source: patent US10729643B2, “Methods for administration and methods for treating cardiovascular diseases with resiniferatoxin” (priority 2013, dated 2020)
